Data set [1] can be described thus: UV-visible absorption spectra in DMSO. Type of data set: physicochemical. From the text: The absorption spectra of compounds (4) and (5) recorded in DMSO are shown in FIG. 1 along with the parent compound (2). Based on the study of absorption spectra of hypocrellin B (2) (Diwu et al. Sinica Sol. B 18, 1993, 131), the shorter wavelength absorption bands are assigned to the π-π* transition, and the absorption bands at the longer wavelength is the relation to […] charge transfer (ICT) which may take on some active role in the photodynamic activity of the molecule. From FIG. 1, the absorption at the longer wavelengths of compounds (4) and (5) has enhanced, as compared to the parent hypocrellin B (2). The maximum absorption of compounds (4) and (5) is around 600-700 nm in DMSO which helps in tissue penetration, while the parent compound hypocrellin (2) has maximum absorption at 580 nm in DMSO. When an electron donating group like 3-dimethylaminopropylamine is introduced in the quinonoid molecule, its interaction with the adjacent carbonyl group enhances the red shift in the absorption spectra, thereby leading to an extended red shift spectral region (photodynamic window) which is important for PDT.

The subject of data set [2] is EMT-6 cells. Put plainly: Dark toxicity, clonogenic assay in EMT-6 cells. The class given is cell-based, mouse. The conditions noted are these: no light. The protocol:
EMT-6 cells in log phase growth were plated onto 35 mm dishes 24 hours prior to experimentation. Growth media was removed and replaced with media containing compounds (4) and (5) at the doses (0, 2.5 μM, 5 μM and 20 μM). The plates were then kept at 37° C. for 3 hours in the dark and then the cells were washed 2 times in PBS then trypsinized and re-plated at 200 cells/60 mm dish in normal RPMI growth media. The cells were allowed to grow for 7 days and then stained with Methylene Blue and the surviving colonies counted.
EMT-6 cells in log phase growth were plated onto 35 mm tissue culture dishes 24 hours prior to experimentation. Growth media was removed and replaced with media containing compounds (4) or (5) at the above doses—0, 2.5 μM, 5 μM and 20 μM (Initially, the drugs were dissolved in pure DMSO @ a concentration of 2 mM). They were diluted down to the appropriate concentrations in RPMI growth media. The plates were then kept at 37° C. for 3 hours in the dark and then the cells were washed 2 times in PBS and finally had 2 ml of RPMI added to each dish. Then, the dark toxicity samples were kept covered at room temperature for the equivalent time taken for light treatment of the other samples. […] The cells were allowed to grow for 7 days and then stained with Methylene Blue and the surviving colonies counted.

Data set [3] has as its system EMT-6 cells. Put plainly: Light treatment (PDT), clonogenic assay in EMT-6 cells. The class given is cell-based, mouse. The note with it: for cell killing ability: 0-20 μM drug, graded light doses, 635 nm; for cell death after light treatment: EMT-6 cells, clonogenic assay, with light; for cell survival: Five μM drug concentration with 2 J/cm^2 light treatment, 635 nm laser. The method, then: EMT-6 cells in log phase growth were plated onto 35 mm tissue culture dishes 24 hours prior to experimentation. Growth media was removed and replaced with media containing compounds (4) or (5) at the above doses—0, 2.5 μM, 5 μM and 20 μM (Initially, the drugs were dissolved in pure DMSO @ a concentration of 2 mM). They were diluted down to the appropriate concentrations in RPMI growth media. The plates were then kept at 37° C. for 3 hours in the dark and then the cells were washed 2 times in PBS and finally had 2 ml of RPMI added to each dish. Then, the dark toxicity samples were kept covered at room temperature for the equivalent time taken for light treatment of the other samples. Light treated samples were subjected to grades doses of light (0, 0.5, 1, 2.5 and 5 J/cm^2) from 635 nm laser with a fluency rate of 150 milli watts. The media was removed and the cells trypsinized and re-plated at 200 cells/60 mm dish in normal RPMI growth media. The cells were allowed to grow for 7 days and then stained with Methylene Blue and the surviving colonies counted.

Data set [4] relates to BT549 cells. Put plainly: Photodynamic activity, tritiated thymidine uptake in BT549 cells. The conditions noted are these: for activity in the absence of light treatment: no light; for cell death after light treatment: tritiated thymidine uptake, with light. The class given is cell-based. The source says: The photodynamic activity of compound 4 has been studied in two cell lines cells by measuring cell death post treatment by tritiated thymidine uptake (in […] cells) and clonogenic assays (in EMT-6 cells).
The photodynamic activity of ACP-compound 5 was studied in two cell lines cells by measuring cell death post treatment by tritiated thymidine uptake (in BT549 cells) and clonogenic assays (in EMT-6 cells).

Data set [5] deals with normal mouse skin. Put plainly: PDT effect on normal mouse skin. Type of data set: in vivo. The source says: Likewise, the photosensitizer alone without light treatment was also ineffective.
The test system of data set [6] is human (ex vivo) skin samples. Put plainly: PDT treated human (ex vivo) skin samples, histology.
A short description of data set [7]: Phase 1 clinical study, topical application to the back of patients with acne. Type of data set: in vivo, human. The note with it: 10 patients with acne on the back. The source says: The primary objective of the study was to measure and quantify the fluorescence levels of ACP-compound 4 in sebaceous glands, epidermis and hair follicles at different time points after topical application. The study also monitored the safety of the drug product after topical administration. The study consisted of a group of 10 patients with acne on the back.

The nature of data set [8]: Fluorescence spectra in chloroform. Type of data set: physicochemical. The source says:
The introduction of the extra cyclic ring in compound (5) have shown a new fluorescent band at longer wavelength (around 725 nm), because of the […] H-atom transfer process. The new florescent band is considered to be related to the ICT between the amino group and the […] carbonyl group.

Data set [9] deals with EMT-6 mouse tumor model. Put plainly: PDT in EMT-6 mouse tumor model. Type of data set: in vivo. The note with it: liposomal formulation (DPPC and cholesterol) combined with light treatment. From the text:
Liposomal formulations of compound 5 for systemic delivery of the photosensitizer. The photosensitizer is formulated with a mixture of dipalmitoyl phosphatidylcholine (DPPC) and cholesterol and extruded through membrane of different pore size until the required size of liposomes was achieved.

The results in this text go back to patent US8747811B2, “Perylenequinone derivatives and uses thereof” (Quest Pharmatech, Inc., priority 2005, dated 2014).

For `COc1c(O)c2c(=O)cc(OC)c3c4c(OC)cc(=O)c5c(O)c(NCCCN(C)C)c6c(c(c1C(C(C)=O)C(C)=C6)c23)c54` (stereo not shown) [Compound 4, 2-(N,N-dimethylaminopropyl)-amino-15-acetyl-3,10-dihydroxy-6,7,11-trimethoxy-14-methyl-15-H-cyclohepta(ghi)perylene-4,9-dione], the “absorption at the longer wavelengths as compared to the parent hypocrellin B (2)” value in data set [1] is “enhanced”. Besides, the “activity in the absence of light treatment” value (“activity in the absence” below) in [2] and in [4] was “No significant activity” throughout. Besides, in [3], the cell killing ability result was “dose dependent cell killing ability with increasing light and drug dose”. In addition, the “cell death after light treatment” value in [3] and in [4] was “significant cell death” each time. Further, the cell survival in data set [3] stood at 1 cell per 1000 plated. Besides, the tissue damage result was “significant epidermal apoptosis” in data set [5] (70 J/cm^2, penetration for 3 to 5 hours); “mild injury to the epidermal cells” in data set [5] (70 J/cm^2, penetration time of 1 or 2 hours, 7 days post treatment); “only the epithelium and part of the fatty layer showed damage” in data set [5] (100 J/cm^2, 1 hour of penetration); “Apoptosis of epidermal cells, basal layer and hair follicle” in data set [5] (100 J/cm^2, 2 hours of penetration); “the whole tissue layer, including muscle layer showed significant damage” in data set [5] (100 J/cm^2, 3 hours of penetration). In data set [5] (without light treatment), the “tissue damage, photosensitizer alone” value was “ineffective”. Further, the “histological changes after PDT” value in [6] is reported as “no histological changes up to two days post treatment but progressive necrotic/apoptotic changes thereafter”. The adverse events entry in data set [7] is “No adverse events have been observed”.

Regarding `COc1c(O)c2c(=O)cc(OC)c3c4c(OC)cc(=O)c5c6c(c7c(c(c1C(C(C)=O)C(C)=C7)c23)c54)NC1CCCCC1N6` (stereo not shown) [Compound 5, (2,3b)-Octahydroquinoxalin-yl-hypocrellin B derivative], the “absorption at the longer wavelengths as compared to the parent hypocrellin B (2)” value in data set [1] is “enhanced”. The “new fluorescent band at longer wavelength” value in data set [8] is “around 725 nm”. In addition, the “activity in the absence” value in data set [2] was “No significant activity”. Also, in [3], the cell killing ability result is “dose dependent cell killing ability with increasing light and drug dose”; the “cell death after light treatment” value is recorded as “significant cell death”; the cell survival came to 1 cell per 1000 plated. In [4], the “activity in the absence” value is “No significant activity” and the “cell death after light treatment” value is listed as “significant cell death”. The tumor response result in [9] is listed as “Complete cure of the implanted tumor”.

With `COc1c2c3c4c(c(OC)c(=O)c5c(O)cc(OC)c(c6c(OC)cc(O)c(c1=O)c63)c54)C(C(C)=O)=C(C)C2` [hypocrellin (2), hypocrellin B, reference compound], the maximum absorption in [1] turned out to be 580 nm.
